Like-named read-outs stand apart in the source and are kept apart here.
Columns and labels:
[1] = tested on: AGS (Gastric Adenocarcinoma); test: Cell viability analysis, gastric cancer AGS; assay type: cell-based, human
[2] = tested on: TSGH-8301 (Urinary Bladder Carcinoma); test: Cell viability analysis, bladder cancer TSGH-8301; assay type: cell-based, human
[3] = tested on: LoVo (Colorectal Adenocarcinoma); test: Cell viability analysis, colon cancer LoVo; assay type: cell-based, human
TOV-21G = test: Cell viability analysis, ovarian cancer TOV-21G; assay type: cell-based, human
[4] = tested on: Hep3B (hepatocellular carcinoma); test: Cell viability analysis, hepatic cancer Hep3B; assay type: cell-based, human
[5] = tested on: SAS (Tongue squamous cell carcinoma); test: Cell viability analysis, tongue cancer SAS; assay type: cell-based, human
U-2OS = test: Cell viability analysis, osteosarcoma U-2OS; assay type: cell-based, human
[6] = tested on: HeLa (Cervix Adenocarcinoma); test: Cell viability analysis, cervical cancer HeLa; assay type: cell-based, human
[7] = tested on: C-33A (Cervical carcinoma); test: Cell viability analysis, cervical cancer C-33A; assay type: cell-based, human
T24 = test: Cell viability analysis, bladder cancer T24; assay type: cell-based, human
[8] = tested on: MCF7 (Mammary Gland, Adenocarcinoma); test: Cell viability analysis, breast cancer MCF7; assay type: cell-based, human
[9] = tested on: PC3 (p53−) (Prostate Adenocarcinoma); test: Cell viability analysis, prostate cancer PC3; assay type: cell-based, human
[10] = tested on: A549 (Lung Adenocarcinoma); test: Cell viability analysis, lung cancer A549; assay type: cell-based, human
[11] = tested on: HCT116 (p53+) (Colorectal Carcinoma)
[12] = tested on: BCC (basal cell carcinoma); test: Cell viability analysis, skin cancer BCC; assay type: cell-based, human
[13] = tested on: HepG2 (Hepatocellular Carcinoma); test: Cell viability analysis, hepatic cancer HepG2; assay type: cell-based, human
NIH: OVCAR-3 = test: Cell viability analysis, ovarian cancer NIH: OVCAR-3; assay type: cell-based, human
BxPC-3 = test: Cell viability analysis, pancreatic cancer BxPC-3; assay type: cell-based, human
[14] = tested on: MDA-MB-231 (Mammary Gland, Adenocarcinoma); test: Cell viability analysis, breast cancer MDA-MB-231; assay type: cell-based, human
[15] = tested on: 786-O (Renal adenocarcinoma); test: Cell viability analysis, renal cancer 786-O; assay type: cell-based, human
[16] = tested on: A375 (Amelanotic Melanoma); test: Cell viability analysis, skin cancer A375; assay type: cell-based, human
[17] = tested on: HI650 (Lung Adenocarcinoma); test: Cell viability analysis, lung cancer HI650; assay type: cell-based, human
[18] = tested on: MKN-45 (Gastric Adenocarcinoma); test: Cell viability analysis, gastric cancer MKN-45; assay type: cell-based, human
AsPC-1 = test: Cell viability analysis, pancreatic cancer AsPC-1; assay type: cell-based, human

## CC[C@H](C)[C@H]1O[C@]2(CC[C@@H]1C)C[C@@H]1C[C@@H](C/C=C(\C)[C@@H](O[C@H]3C[C@H](OC)[C@@H](O[C@H]4C[C@H](OC)[C@@H](O)[C@H](C)O4)[C@H](C)O3)[C@@H](C)/C=C/C=C3\CO[C@@H]4[C@H](O)C(C)=C[C@@H](C(=O)O1)[C@]34O)O2 [Ivermectin]
[1]; AGS, repeated experiment
  The results of antibiotic drug inhibiting cancer cell lines (cell viability analysis), AGS: 79.82
[2]; TSGH-8301, repeated experiment
  The results of antibiotic drug inhibiting cancer cell lines (cell viability analysis), TSGH-8301: 63.74
[3]; LoVo, repeated experiment
  The results of antibiotic drug inhibiting cancer cell lines (cell viability analysis), LoVo: 53.26
TOV-21G; TOV-21G, repeated experiment
  The results of antibiotic drug inhibiting cancer cell lines (cell viability analysis), TOV-21G: 42.41
[4]; Hep3B, repeated experiment
  The results of antibiotic drug inhibiting cancer cell lines (cell viability analysis), Hep3B: 63.22
[5]; SAS, repeated experiment
  The results of antibiotic drug inhibiting cancer cell lines (cell viability analysis), SAS: 41.52
U-2OS; U2OS, repeated experiment
  The results of antibiotic drug inhibiting cancer cell lines (cell viability analysis), U2OS: 50.69
[6]; HeLa, repeated experiment
  The results of antibiotic drug inhibiting cancer cell lines (cell viability analysis), HeLa: 58.86
[7]; C-33A, repeated experiment
  The results of antibiotic drug inhibiting cancer cell lines (cell viability analysis), C-33A: 85.05
T24; T24, repeated experiment
  The results of antibiotic drug inhibiting cancer cell lines (cell viability analysis), T24: 101.7
[8]; MCF-7, repeated experiment
  The results of antibiotic drug inhibiting cancer cell lines (cell viability analysis), MCF-7: 48.13
[9]; PC-3, repeated experiment
  The results of antibiotic drug inhibiting cancer cell lines (cell viability analysis), PC-3: 27.87
[10]; A549, repeated experiment
  The results of antibiotic drug inhibiting cancer cell lines (cell viability analysis), A549: 33.35
[11]
  viability: 62.7%
[12]; BCC, repeated experiment
  The results of antibiotic drug inhibiting cancer cell lines (cell viability analysis), BCC: 33.64
[13]; HepG2, repeated experiment
  The results of antibiotic drug inhibiting cancer cell lines (cell viability analysis), HepG2: 65.3
NIH: OVCAR-3; NIH-OVCAR-3, repeated experiment
  The results of antibiotic drug inhibiting cancer cell lines (cell viability analysis), NIH-OVCAR-3: 61.85
BxPC-3; BxPC-3, repeated experiment
  The results of antibiotic drug inhibiting cancer cell lines (cell viability analysis), BxPC-3: 65.76
[14]; MDA-MB231, repeated experiment
  The results of antibiotic drug inhibiting cancer cell lines (cell viability analysis), MDA-MB231: 83.03
[15]; 786-O, repeated experiment
  The results of antibiotic drug inhibiting cancer cell lines (cell viability analysis), 786-O: 55.69
[16]; A375, repeated experiment
  The results of antibiotic drug inhibiting cancer cell lines (cell viability analysis), A375: 44.36
[17]; H1650, repeated experiment
  The results of antibiotic drug inhibiting cancer cell lines (cell viability analysis), H1650: 50.2
[18]; MKN-45, repeated experiment
  The results of antibiotic drug inhibiting cancer cell lines (cell viability analysis), MKN-45: 102.1
AsPC-1; AsPC-1, repeated experiment
  The results of antibiotic drug inhibiting cancer cell lines (cell viability analysis), AsPC-1: 41.75

## Cc1cc(C#N)cc(C)c1Oc1nc(Nc2ccc(C#N)cc2)nc(N)c1Br [Etravirine (TMC125)]
[1]
  The results of antibiotic drug inhibiting cancer cell lines (cell viability analysis), AGS: 49.66
[2]
  The results of antibiotic drug inhibiting cancer cell lines (cell viability analysis), TSGH-8301: 56.13
[3]
  The results of antibiotic drug inhibiting cancer cell lines (cell viability analysis), LoVo: 45.66
TOV-21G
  The results of antibiotic drug inhibiting cancer cell lines (cell viability analysis), TOV-21G: 28.26
[4]
  The results of antibiotic drug inhibiting cancer cell lines (cell viability analysis), Hep3B: 78.35
[5]
  The results of antibiotic drug inhibiting cancer cell lines (cell viability analysis), SAS: 34.01
U-2OS
  The results of antibiotic drug inhibiting cancer cell lines (cell viability analysis), U2OS: 36.38
[6]
  The results of antibiotic drug inhibiting cancer cell lines (cell viability analysis), HeLa: 47.73
[7]
  The results of antibiotic drug inhibiting cancer cell lines (cell viability analysis), C-33A: 63.88
T24
  The results of antibiotic drug inhibiting cancer cell lines (cell viability analysis), T24: 56.73
[8]
  The results of antibiotic drug inhibiting cancer cell lines (cell viability analysis), MCF-7: 56.33
[9]
  The results of antibiotic drug inhibiting cancer cell lines (cell viability analysis), PC-3: 53.42
[10]
  The results of antibiotic drug inhibiting cancer cell lines (cell viability analysis), A549: 37
[11]
  viability: 54.1%
[12]
  The results of antibiotic drug inhibiting cancer cell lines (cell viability analysis), BCC: 46.3
[13]
  The results of antibiotic drug inhibiting cancer cell lines (cell viability analysis), HepG2: 68.31
NIH: OVCAR-3
  The results of antibiotic drug inhibiting cancer cell lines (cell viability analysis), NIH-OVCAR-3: 64.29
BxPC-3
  The results of antibiotic drug inhibiting cancer cell lines (cell viability analysis), BxPC-3: 41.88
[14]
  The results of antibiotic drug inhibiting cancer cell lines (cell viability analysis), MDA-MB231: 95.38
[15]
  The results of antibiotic drug inhibiting cancer cell lines (cell viability analysis), 786-O: 59.38
[16]
  The results of antibiotic drug inhibiting cancer cell lines (cell viability analysis), A375: 37.32
[17]
  The results of antibiotic drug inhibiting cancer cell lines (cell viability analysis), H1650: 51.13
[18]
  The results of antibiotic drug inhibiting cancer cell lines (cell viability analysis), MKN-45: 62.38
AsPC-1
  The results of antibiotic drug inhibiting cancer cell lines (cell viability analysis), AsPC-1: 41.11

Reference: patent US10105357B2, “Indication of antibiotic drugs for preparation of cancer inhibition pharmaceutical composition” (LAUNX BIOMEDICAL CO., LTD., priority 2014, dated 2018)
